Experimental data reported in publication PMC7139549, “TLD1433 Photosensitizer Inhibits Conjunctival Melanoma Cells in Zebrafish Ectopic and Orthotopic Tumour Models” (Cancers, 2020).
Where two headings read alike, the source gives them in different places.

Tested on: OMM1 uveal melanoma cell line
Test: SRB cell viability assay, OMM1
Format: cell-based, Human
Experimental: TLD1433 is known to generate reactive oxygen species (ROS) with high quantum efficacy in many cancer cell lines. However, there is no report of the in vitro toxicity of this compound in eye melanoma (UM) cell lines. We determined the cell viability of three conjunctival melanoma cell lines (CRMM1, CRMM2 and CM2005.1), and three uveal melanoma cell lines (OMM1, OMM2.5, MEL270) in the presence of TLD1433, both in the dark or under green light irradiation (21 mW/cm^2, 19 J/cm^2, 520 nm, 15 min), and compared this viability to epidermoid carcinoma A431 and cutaneous melanoma A375 cell lines under the same conditions. The protocol used was based on previous work from the Bonnet group, and differed slightly from recommendations from McFarland et al.. […] The effective concentration (EC50) values, i.e., the concentration required to reduce cell viability by 50% compared to untreated wells, were assessed by fitting the dose-response curves with a Hill equation. The phototoxicity index (PI), defined as the ratio of the dark EC50 to the light EC50, was also calculated and represents the amplification of TLD1433 activity with a light trigger. […]
Figure 2 Cell viability after TLD1433 treatment of eight tumour cell lines (CRMM1, CRMM2, CM2005.1, OMM1, OMM2.5, MEL270, A431, A375). […] The absorbance of Sulforhodamine B in solution was measured at 520 nm. […]
At day 0, cells were detached using 1mL of trypsin, resuspended in 4 mL of media and transferred to a 15 mL corning falcon tube. Cells were counted using trypan blue and BioRad® TC20™ automated cell counter (Figure 11). Dilutions of 6000 (CRMM1), 6000 (CRMM2), 8000 (CM2005.1), 6000 (OMM1), 6000 (OMM2.5), 6000 (MEL270) 8000 (A431), and 4000 (A375) cells/well were calculated from each cell suspension at a final volume of 6 mL using the following formula: Vc=(Vt×10C)/Lc where Vt = total volume of solution, C = number of cells per well/per 100 μL and Lc = live cells count (cells/mL). […] Next day, the dye was dissolved using Tri-base (0.25%) and absorbance of SRB at 510 nm was recorded from each well using a Tecan plate reader. […]

Structure (SMILES): Cc1ccnc(-c2cc(C)ccn2)c1.Cc1ccnc(-c2cc(C)ccn2)c1.[Cl-].[Cl-].[Ru+2].c1csc(-c2ccc(-c3ccc(-c4nc5c6cccnc6c6ncccc6c5[nH]4)s3)s2)c1 [TLD1433]
- EC50 (OMM1, dark, 24 h treatment, SRB, read-out: EC50, dark): 1400 nM
- EC50 (OMM1, green light 520 nm, 15 min, 21 mW/cm^2, 19 J.cm^−2, DLI 24 h, read-out: EC50,light): 14 nM
- PI (photo index) (OMM1, ratio of dark and light EC50, 19 J.cm^−2 green light): 100
